Structures can show the parent of a compound that is named as a salt.

Data set [1] addresses T1, NaV1.6 (Homo sapiens (Human), UniProt Q9UQD0). In words: Electrophysiological Assay (EP), patch voltage clamp, NaV1.6.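 Note: sodium current recorded at ambient temperature, channels held inactivated then briefly repolarized to −150 mV for 20 ms before a test pulse, control currents in 0.5% DMSO.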 To be noted: HEK-293 cells, whole-cell patch clamp. It is filed as cell-based.
Data set [2] concerns the target T1, NaV1.6. In words: Sodium Influx Assay (Flux), NaV1.6.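 Note: Tetracycline-induced cells, compounds applied for one hour at room temperature with modulators holding channels open, IC50 from percent inhibition of sodium influx.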 It is filed as cell-based. To be noted: Trex HEK293 cells, ANG2 dye, inactivated state.
The target of another data set is NaV1.5 (Homo sapiens (Human), UniProt Q14524). In words: Sodium Influx Assay (Flux), NaV1.5. The conditions noted are these: read-out: Flux NaV1.5 IC50; Trex HEK293 cells, ANG2 dye, inactivated state.
Sequence of NaV1.5 (Q14524 other isoform, or with tags, fused parts or gaps): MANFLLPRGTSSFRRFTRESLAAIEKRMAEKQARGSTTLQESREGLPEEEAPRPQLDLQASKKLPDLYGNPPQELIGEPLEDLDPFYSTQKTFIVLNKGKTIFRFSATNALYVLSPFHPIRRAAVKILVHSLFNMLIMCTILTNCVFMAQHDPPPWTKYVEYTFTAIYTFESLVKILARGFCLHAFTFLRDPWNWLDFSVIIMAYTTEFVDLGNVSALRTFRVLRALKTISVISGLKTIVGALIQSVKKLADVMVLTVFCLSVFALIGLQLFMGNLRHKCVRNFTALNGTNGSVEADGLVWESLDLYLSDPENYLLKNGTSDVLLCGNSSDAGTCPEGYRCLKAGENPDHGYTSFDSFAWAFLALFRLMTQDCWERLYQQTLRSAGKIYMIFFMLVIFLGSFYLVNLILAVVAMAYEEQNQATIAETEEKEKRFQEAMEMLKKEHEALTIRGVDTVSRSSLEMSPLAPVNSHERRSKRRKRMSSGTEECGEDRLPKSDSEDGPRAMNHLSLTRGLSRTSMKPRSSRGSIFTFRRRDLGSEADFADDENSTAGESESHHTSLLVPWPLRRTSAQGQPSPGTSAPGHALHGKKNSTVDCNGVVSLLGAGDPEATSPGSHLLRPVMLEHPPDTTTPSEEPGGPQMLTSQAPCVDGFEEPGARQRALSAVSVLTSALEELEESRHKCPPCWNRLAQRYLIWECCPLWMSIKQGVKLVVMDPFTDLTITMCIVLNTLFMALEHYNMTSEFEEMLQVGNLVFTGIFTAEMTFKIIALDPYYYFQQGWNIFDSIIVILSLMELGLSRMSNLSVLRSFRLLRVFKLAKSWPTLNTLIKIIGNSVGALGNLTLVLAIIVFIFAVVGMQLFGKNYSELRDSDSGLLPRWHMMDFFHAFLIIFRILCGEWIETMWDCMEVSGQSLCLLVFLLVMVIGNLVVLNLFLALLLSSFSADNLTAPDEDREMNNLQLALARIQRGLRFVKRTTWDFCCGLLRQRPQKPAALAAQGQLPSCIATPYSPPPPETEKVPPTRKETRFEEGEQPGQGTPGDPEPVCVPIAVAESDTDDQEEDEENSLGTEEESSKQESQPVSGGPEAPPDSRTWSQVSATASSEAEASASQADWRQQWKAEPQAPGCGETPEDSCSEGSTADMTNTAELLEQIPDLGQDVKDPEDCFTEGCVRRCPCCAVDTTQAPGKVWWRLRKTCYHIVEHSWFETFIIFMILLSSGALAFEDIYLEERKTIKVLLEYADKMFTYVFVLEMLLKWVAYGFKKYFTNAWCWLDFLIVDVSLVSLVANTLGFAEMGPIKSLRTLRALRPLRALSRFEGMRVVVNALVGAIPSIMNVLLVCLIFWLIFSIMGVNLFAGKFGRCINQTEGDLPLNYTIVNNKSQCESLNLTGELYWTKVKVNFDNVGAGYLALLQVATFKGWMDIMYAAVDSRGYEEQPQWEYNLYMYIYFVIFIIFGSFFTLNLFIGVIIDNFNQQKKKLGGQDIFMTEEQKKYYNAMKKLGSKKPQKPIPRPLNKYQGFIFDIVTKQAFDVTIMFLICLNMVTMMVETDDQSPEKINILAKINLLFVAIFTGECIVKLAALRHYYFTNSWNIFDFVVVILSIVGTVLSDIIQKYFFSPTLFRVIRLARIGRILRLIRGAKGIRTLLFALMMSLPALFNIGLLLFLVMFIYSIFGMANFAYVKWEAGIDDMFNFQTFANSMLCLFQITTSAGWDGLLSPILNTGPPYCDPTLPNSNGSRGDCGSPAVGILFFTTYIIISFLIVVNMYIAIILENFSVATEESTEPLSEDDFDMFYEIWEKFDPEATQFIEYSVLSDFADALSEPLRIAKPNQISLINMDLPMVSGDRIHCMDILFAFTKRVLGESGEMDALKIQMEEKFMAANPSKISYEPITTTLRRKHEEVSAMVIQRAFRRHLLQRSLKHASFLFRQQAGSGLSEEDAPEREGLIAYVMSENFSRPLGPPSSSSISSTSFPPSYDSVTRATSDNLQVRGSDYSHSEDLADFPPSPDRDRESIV
Data set [3] deals with T2, NaV1.1 (Homo sapiens (Human), UniProt P35498). In words: Electrophysiological Assay (EP), patch voltage clamp, NaV1.1.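 Note: sodium current block measured at ambient temperature, holding at fully inactivating potential, 20 ms repolarization to −150 mV before test pulse, versus 0.5% DMSO control currents.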 It is filed as cell-based. The conditions noted are these: HEK-293 cells, whole-cell patch clamp.
Data set [4] deals with T2, NaV1.1. In words: Sodium Influx Assay (Flux), NaV1.1.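 Note: channels co-expressed with human β1 subunit and held open by modulators, cells exposed to compounds for one hour at room temperature, IC50 from percent inhibition of influx.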 To be noted: Trex HEK293 cells, ANG2 dye, inactivated state. The class given is cell-based.

T1 sequence (Q9UQD0 whole entry): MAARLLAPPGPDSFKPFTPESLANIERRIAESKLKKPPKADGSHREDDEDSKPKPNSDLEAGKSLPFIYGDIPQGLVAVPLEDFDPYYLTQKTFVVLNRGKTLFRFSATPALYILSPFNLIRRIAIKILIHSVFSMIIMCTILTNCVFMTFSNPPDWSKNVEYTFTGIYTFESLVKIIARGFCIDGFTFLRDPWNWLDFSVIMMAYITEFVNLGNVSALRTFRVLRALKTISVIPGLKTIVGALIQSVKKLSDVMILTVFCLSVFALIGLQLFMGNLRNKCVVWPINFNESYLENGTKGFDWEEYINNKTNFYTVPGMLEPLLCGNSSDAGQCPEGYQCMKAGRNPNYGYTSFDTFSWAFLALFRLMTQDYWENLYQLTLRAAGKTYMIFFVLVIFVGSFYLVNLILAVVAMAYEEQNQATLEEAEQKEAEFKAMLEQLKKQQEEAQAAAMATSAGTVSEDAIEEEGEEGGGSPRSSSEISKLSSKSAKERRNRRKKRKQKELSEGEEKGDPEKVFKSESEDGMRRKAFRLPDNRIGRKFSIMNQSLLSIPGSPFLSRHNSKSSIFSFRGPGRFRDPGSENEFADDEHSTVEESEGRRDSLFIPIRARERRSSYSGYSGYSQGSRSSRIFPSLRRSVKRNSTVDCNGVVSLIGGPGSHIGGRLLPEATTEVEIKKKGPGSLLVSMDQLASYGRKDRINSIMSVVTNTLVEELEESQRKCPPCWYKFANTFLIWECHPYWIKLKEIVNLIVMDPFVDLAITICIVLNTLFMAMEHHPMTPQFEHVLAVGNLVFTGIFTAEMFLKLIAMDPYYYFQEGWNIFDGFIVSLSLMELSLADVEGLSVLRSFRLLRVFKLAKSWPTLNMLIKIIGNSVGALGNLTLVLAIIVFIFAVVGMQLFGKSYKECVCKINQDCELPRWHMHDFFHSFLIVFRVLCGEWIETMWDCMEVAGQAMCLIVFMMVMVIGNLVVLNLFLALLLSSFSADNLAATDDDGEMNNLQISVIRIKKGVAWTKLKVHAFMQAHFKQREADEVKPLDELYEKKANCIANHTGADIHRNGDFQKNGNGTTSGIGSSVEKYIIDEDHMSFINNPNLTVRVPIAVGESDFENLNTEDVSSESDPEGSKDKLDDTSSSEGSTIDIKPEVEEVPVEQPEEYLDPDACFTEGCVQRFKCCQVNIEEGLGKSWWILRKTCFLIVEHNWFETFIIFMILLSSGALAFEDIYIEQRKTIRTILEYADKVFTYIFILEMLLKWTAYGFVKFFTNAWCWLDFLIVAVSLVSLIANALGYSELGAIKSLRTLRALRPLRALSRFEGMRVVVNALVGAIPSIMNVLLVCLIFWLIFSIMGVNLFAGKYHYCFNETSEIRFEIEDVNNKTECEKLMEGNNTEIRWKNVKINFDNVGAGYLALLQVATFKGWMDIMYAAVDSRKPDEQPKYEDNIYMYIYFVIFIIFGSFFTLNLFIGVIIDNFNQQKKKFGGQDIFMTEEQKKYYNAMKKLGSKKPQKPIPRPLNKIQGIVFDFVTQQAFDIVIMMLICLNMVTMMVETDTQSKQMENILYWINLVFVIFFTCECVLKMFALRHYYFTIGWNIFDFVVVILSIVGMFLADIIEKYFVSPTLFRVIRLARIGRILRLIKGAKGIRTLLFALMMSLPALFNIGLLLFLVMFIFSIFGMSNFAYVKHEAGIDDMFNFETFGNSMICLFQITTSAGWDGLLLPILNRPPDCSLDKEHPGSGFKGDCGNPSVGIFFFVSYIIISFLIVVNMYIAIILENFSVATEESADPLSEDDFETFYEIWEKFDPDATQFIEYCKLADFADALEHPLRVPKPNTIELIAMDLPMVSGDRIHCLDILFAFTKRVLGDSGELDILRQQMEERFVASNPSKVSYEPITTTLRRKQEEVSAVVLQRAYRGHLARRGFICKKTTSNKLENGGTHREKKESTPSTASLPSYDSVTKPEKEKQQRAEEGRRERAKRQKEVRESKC

One may read the IC50 as the point on the concentration scale where inhibition reaches its midpoint. On to “3-chloro-4-(1-phenylethylamino)-N-(1,2,4-thiadiazol-5-yl)benzenesulfonamide [Example 142]”, for which the IC50 on NaV1.6 [1] worked out at 0.106 µM; against NaV1.6 [2], 0.187 µM; at NaV1.5, 21.2 µM; against NaV1.1 [3], 10 µM; at NaV1.1 [4], 3.23 µM.

With “5-chloro-2-fluoro-4-((1-(2-fluorophenyl)ethyl)amino)-N-(thiazol-2-yl)benzenesulfonamide [Example 144]”, the IC50 against NaV1.6 [1] stood at 0.034 µM; at NaV1.6 [2] it was 0.214 µM; on NaV1.5, 9.67 µM; at NaV1.1 [3] it was 0.907 µM; against NaV1.1 [4], 2.54 µM.

For the molecule `O=S(=O)(Nc1nccs1)c1ccc(N[C@H](c2ccccc2)C(F)(F)F)c(Cl)c1` [Example 4, (R)-3-chloro-N-(thiazol-2-yl)-4-((2,2,2-trifluoro-1-phenylethyl)amino)benzenesulfonamide formate], the half-maximal inhibitory concentration (IC50) against NaV1.6 [1] was 0.041 µM; against NaV1.6 [2] it was 0.794 µM; at NaV1.5, 7.01 µM; against NaV1.1 [3] it was 5.31 µM; at NaV1.1 [4] it was 3.4 µM.

For `C[C@H](Nc1cc(F)c(S(=O)(=O)Nc2nccs2)cc1Cl)c1cc(Cl)ccc1F` [Example 8, (S)-5-chloro-4-((1-(5-chloro-2-fluorophenyl)ethyl)amino)-2-fluoro-N-(thiazol-2-yl)benzenesulfonamide], the IC50 against NaV1.6 [1] stood at 0.01 µM; at NaV1.6 [2], 0.137 µM; at NaV1.5, 5.37 µM; against NaV1.1 [3], 0.42 µM; against NaV1.1 [4] it was 1.63 µM.

Turning to `C[C@H](Nc1ccc(S(=O)(=O)Nc2nccs2)c(F)c1Cl)c1ccccc1F` [Example 9, (S)-3-chloro-2-fluoro-4-((1-(2-fluorophenyl)ethyl)amino)-N-(thiazol-2-yl)benzenesulfonamide], the IC50 against NaV1.6 [1] was determined as 0.026 µM; against NaV1.6 [2] it was 0.181 µM; on NaV1.5, 4.22 µM; against NaV1.1 [3], 4.33 µM; on NaV1.1 [4], 2.36 µM.

As for `C[C@H](Oc1ccc(S(=O)(=O)Nc2nccs2)c(F)c1Cl)c1ccccc1F` [Example 10, (S)-3-chloro-2-fluoro-4-(1-(2-fluorophenyl)ethoxy)-N-(thiazol-2-yl)benzenesulfonamide], the IC50 was found to be 0.128 µM on NaV1.6 [1]; 0.461 µM on NaV1.6 [2]; 2.35 µM at NaV1.5; 5.47 µM against NaV1.1 [3]; 1.63 µM at NaV1.1 [4].

Consider `O=S(=O)(Nc1nccs1)c1cc(Cl)c(OCc2cccc3ccncc23)cc1F` [Example 11, 5-chloro-2-fluoro-4-(isoquinolin-8-ylmethoxy)-N-(thiazol-2-yl)benzenesulfonamide], for which the IC50 against NaV1.6 [1] was found to be 0.034 µM; on NaV1.6 [2], 0.255 µM; on NaV1.5, 30 µM; at NaV1.1 [3] it was 10 µM; on NaV1.1 [4] it was 30 µM.

For `O=S(=O)(Nc1nccs1)c1cc(Cl)c(NCc2ccccc2CN2CCC2)cc1F` [Example 16, 4-((2-(azetidin-1-ylmethyl)benzyl)amino)-5-chloro-2-fluoro-N-(thiazol-2-yl)benzenesulfonamide 2,2,2-trifluoroacetate], the IC50 on NaV1.6 [1] came out at 0.004 µM; against NaV1.6 [2], 0.029 µM; at NaV1.5, 23.5 µM; on NaV1.1 [3] it was 2.19 µM; against NaV1.1 [4], 5.41 µM.

Regarding `O=S(=O)(Nc1cscn1)c1cc(Cl)c(NCc2ccccc2CN2CCC2)cc1F` [Example 19, 4-((2-(azetidin-1-ylmethyl)benzyl)amino)-5-chloro-2-fluoro-N-(thiazol-4-yl)benzenesulfonamide 2,2,2-trifluoroacetate], the IC50 worked out at 0.13 µM at NaV1.6 [1]; 0.425 µM against NaV1.6 [2]; 18.5 µM at NaV1.5; 10 µM against NaV1.1 [3]; 11.7 µM at NaV1.1 [4].

Turning to `O=S(=O)(Nc1cscn1)c1cc(Cl)c(NC2(c3ccccc3)CC2)cc1F` [Example 20, 5-chloro-2-fluoro-4-((1-phenylcyclopropyl)amino)-N-(thiazol-4-yl)benzenesulfonamide], the IC50 at NaV1.6 [1] came out at 1.18 µM; against NaV1.6 [2], 2.05 µM; on NaV1.5, 30 µM; against NaV1.1 [3], 10 µM; at NaV1.1 [4] it was 30 µM.

Regarding `C[C@H](Nc1cc(F)c(S(=O)(=O)Nc2cccc(F)n2)cc1Cl)c1ccccc1F` [Example 22, (S)-5-chloro-2-fluoro-4-((1-(2-fluorophenyl)ethyl)amino)-N-(6-fluoropyridin-2-yl)benzenesulfonamide], the IC50 at NaV1.6 [1] was 0.259 µM; against NaV1.6 [2], 1.3 µM; on NaV1.5, 4.86 µM; against NaV1.1 [3], 9 µM; against NaV1.1 [4], 4.29 µM.

As for `C[C@H](Nc1cc(F)c(S(=O)(=O)Nc2nccs2)cc1F)c1ccccc1F` [Example 25, (S)-2,5-difluoro-4-((1-(2-fluorophenyl)ethyl)amino)-N-(thiazol-2-yl)benzenesulfonamide], the 50% inhibitory concentration (IC50) against NaV1.6 [1] came out at 0.057 µM; against NaV1.6 [2], 0.175 µM; on NaV1.5, 10.3 µM; at NaV1.1 [3] it was 2.52 µM; on NaV1.1 [4], 1.87 µM.

As to `C[C@H](Oc1cc(F)c(S(=O)(=O)Nc2nccs2)cc1F)c1ccccc1F` [Example 26, (S)-2,5-difluoro-4-(1-(2-fluorophenyl)ethoxy)-N-(thiazol-2-yl)benzenesulfonamide], the IC50 came to 0.113 µM against NaV1.6 [1]; 0.742 µM at NaV1.6 [2]; 3.45 µM at NaV1.5; 6.75 µM at NaV1.1 [3]; 4.74 µM against NaV1.1 [4].

Consider `C[C@H](Nc1cc(F)c(S(=O)(=O)Nc2nccs2)c(F)c1)c1ccccc1F` [Example 27, (S)-2,6-difluoro-4-((1-(2-fluorophenyl)ethyl)amino)-N-(thiazol-2-yl)benzenesulfonamide], for which the IC50 against NaV1.6 [1] was determined as 0.012 µM; at NaV1.6 [2] it was 0.069 µM; on NaV1.5 it was 8.49 µM; on NaV1.1 [3] it was 0.112 µM; on NaV1.1 [4], 0.476 µM.

With `CC[C@@H](Nc1ccc(S(=O)(=O)Nc2ncns2)cc1Cl)c1ccccc1` [Example 31, (R)-3-chloro-4-((1-phenylpropyl)amino)-N-(1,2,4-thiadiazol-5-yl)benzenesulfonamide], the half-inhibitory concentration (IC50) against NaV1.6 [1] amounted to 0.118 µM; on NaV1.6 [2] it was 0.917 µM; at NaV1.5, 16.9 µM; against NaV1.1 [3], 10 µM; against NaV1.1 [4], 6.17 µM.

Turning to `CC[C@@H](Nc1cc(F)c(S(=O)(=O)Nc2nccs2)cc1Cl)c1ccccc1` [Example 39, (R)-5-chloro-2-fluoro-4-((1-phenylpropyl)amino)-N-(thiazol-2-yl)benzenesulfonamide], the IC50 on NaV1.6 [1] was found to be 0.285 µM; against NaV1.6 [2], 0.791 µM; at NaV1.5 it was 6.81 µM; on NaV1.1 [3], 1.85 µM; on NaV1.1 [4], 2.35 µM.

As for `CC[C@H](Nc1cc(F)c(S(=O)(=O)Nc2nccs2)cc1Cl)c1ccccc1` [Example 40, (S)-5-chloro-2-fluoro-4-((1-phenylpropyl)amino)-N-(thiazol-2-yl)benzenesulfonamide], the IC50 is 0.024 µM at NaV1.6 [1]; 0.123 µM on NaV1.6 [2]; 7.9 µM at NaV1.5; 0.182 µM on NaV1.1 [3]; 0.637 µM on NaV1.1 [4].

On to `O=S(=O)(Nc1nccs1)c1cc(Cl)c(NC(CC(F)(F)F)c2ccccc2)cc1F` (stereo not drawn) [Example 41, 5-chloro-2-fluoro-N-(thiazol-2-yl)-4-((3,3,3-trifluoro-1-phenylpropyl)amino)benzenesulfonamide], for which the IC50 came out at 0.01 µM on NaV1.6 [1]; 0.07 µM at NaV1.6 [2]; 11.8 µM at NaV1.5; 0.031 µM at NaV1.1 [3]; 0.364 µM against NaV1.1 [4].

`C[C@H](Nc1cc(F)c(S(=O)(=O)Nc2nccs2)cc1Cl)C1CCCCC1` [Example 42, (S)-5-chloro-4-((1-cyclohexylethyl)amino)-2-fluoro-N-(thiazol-2-yl)benzenesulfonamide]: the IC50 against NaV1.6 [1] came out at 0.305 µM; against NaV1.6 [2] it was 3.03 µM; on NaV1.5 it was 14.4 µM; on NaV1.1 [3], 6.77 µM; on NaV1.1 [4] it was 5.65 µM.

For `CC[C@H](Nc1ccc(S(=O)(=O)Nc2nccs2)cc1)c1ccccc1` [Example 84, (S)-4-((1-phenylpropyl)amino)-N-(thiazol-2-yl)benzenesulfonamide], the figures for the IC50 on NaV1.1 [3] and against NaV1.1 [4] were 10 µM and 2.41 µM, respectively.

In the case of `CCC(c1ccccc1)N(C)c1ccc(S(=O)(=O)Nc2nccs2)cc1Cl` (stereo not drawn) [Example 90, 3-chloro-4-(methyl(1-phenylpropyl)amino)-N-(thiazol-2-yl)benzenesulfonamide], the IC50 was determined as 2.01 µM against NaV1.1 [3] and 4.05 µM against NaV1.1 [4].

Regarding `O=S(=O)(Nc1ccccn1)c1c(F)cc(NCc2c(F)cccc2CN2CCC2)cc1F` [Example 328, 4-((2-(azetidin-1-ylmethyl)-6-fluorobenzyl)amino)-2,6-difluoro-N-(pyridin-2-yl)benzenesulfonamide], the IC50 against NaV1.6 [1] stood at 1.04 µM; against NaV1.6 [2], 3.82 µM; at NaV1.5, 30 µM; at NaV1.1 [4], 30 µM.

On to `Cc1c(NCc2ccccc2CN2CCC2)cc(F)c(S(=O)(=O)Nc2ncns2)c1F` [Example 330, 4-((2-(azetidin-1-ylmethyl)benzyl)amino)-2,6-difluoro-3-methyl-N-(1,2,4-thiadiazol-5-yl)benzenesulfonamide], for which the IC50 at NaV1.6 [1] came out at 0.001 µM; at NaV1.6 [2] it was 0.001 µM; on NaV1.5, 30 µM; on NaV1.1 [4] it was 2 µM.

As for `O=S(=O)(Nc1cscn1)c1cc(Cl)c(NCc2c(F)ccc3cn[nH]c23)cc1F` [Example 334, 5-chloro-2-fluoro-4-(((6-fluoro-1H-indazol-7-yl)methyl)amino)-N-(thiazol-4-yl)benzenesulfonamide formate], the concentration for half-maximal inhibition (IC50) is 0.002 µM against NaV1.6 [1], 0.029 µM against NaV1.6 [2], 30 µM on NaV1.5 and 4.65 µM against NaV1.1 [4].

The values are drawn from patent publication US11174268B2, “Benzenesulfonamide compouds and their use as therapeutic agents” (Xenon Pharmaceuticals Inc., priority 2016, dated 2021).
